From patent US20230406831A1, “COMPOUNDS AND METHODS OF INHIBITING BACTERIAL CHAPERONIN SYSTEMS” (THE TRUSTEES OF INDIANA UNIVERSITY, priority 2020, published 2023)

Experiments:
GroEL/ES = target: T1, GroEL/ES (Escherichia coli, UniProt P0A6F5); assay: GroEL/ES-mediated dMDH refolding assay; assay type: biochemical, E. coli; details: Table 3; 37° C., 1 mM ATP; read-out: Biochemical Assay IC50 GroEL/ES-dMDH Refolding
T1 construct: made in house; host or cells: GroEL in E. coli DH5a; GroES in E. coli BL21 (DE3)
T1 sequence (P0A6F5 2-548): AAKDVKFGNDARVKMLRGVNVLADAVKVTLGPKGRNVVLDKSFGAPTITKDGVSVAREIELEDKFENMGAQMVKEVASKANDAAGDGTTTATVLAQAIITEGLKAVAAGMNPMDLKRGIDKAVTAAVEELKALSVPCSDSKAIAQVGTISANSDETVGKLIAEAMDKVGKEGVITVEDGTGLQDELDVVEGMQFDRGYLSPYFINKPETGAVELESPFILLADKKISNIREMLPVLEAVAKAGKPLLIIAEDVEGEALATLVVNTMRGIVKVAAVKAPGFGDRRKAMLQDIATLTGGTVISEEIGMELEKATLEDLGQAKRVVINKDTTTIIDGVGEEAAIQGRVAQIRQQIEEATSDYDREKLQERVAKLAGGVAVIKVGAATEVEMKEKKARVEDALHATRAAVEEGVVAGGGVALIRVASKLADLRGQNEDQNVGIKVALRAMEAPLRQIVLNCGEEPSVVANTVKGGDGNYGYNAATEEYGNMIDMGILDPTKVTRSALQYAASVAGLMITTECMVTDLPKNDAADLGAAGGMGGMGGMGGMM
Experimental: (§1) Evaluation of compounds ability to inhibit GroEL/ES and HSP60/10-mediated dMDH refolding assays.
(§2) Reagent preparation: For these assays, four primary reagent stocks were prepared: 1) GroEL/ES-dMDH or HSP60/10-dMDH binary complex stock; 2) ATP initiation stock; 3) EDTA quench stock; 4) MDH enzymatic assay stock. Denatured MDH (dMDH) was prepared by 2-fold dilution of MDH (5 mg/ml, soluble pig heart MDH from Roche, product #10127248001) with denaturant buffer (7 M guanidine-HCl, 200 mM Tris, pH 7.4, and 50 mM DTT). MDH was completely denatured by incubating at room temperature for 45 min. The binary complex solutions were prepared by slowly adding the dMDH stock to a stirring stock with GroEL (or HSP60) in folding buffer (50 mM Tris-HCl, pH 7.4, 50 mM KCl, 10 mM MglC2, and 1 mM DTT), followed by addition of GroES (or HSP10). The binary complex stocks were prepared immediately prior to dispensing into the assay plates and had final protein concentrations of 83.3 nM GroEL (Mr 800 kDa) or HSP60 (Mr 400 kDa), 100 nM GroES or HSP10 (Mr 70 kDa), and 20 nM dMDH in folding buffer. For the ATP initiation stock, ATP solid was diluted into folding buffer to a final concentration of 2.5 mM. Quench solution contained 600 mM EDTA (pH 8.0). The MDH enzymatic assay stock consisted of 20 mM sodium mesoxalate and 2.4 mM NADH in reaction buffer (50 mM Tris-HCl, pH 7.4, 50 mM KC1, and 1 mM DTT).
(§3) Assay Protocol: First, 30 μL aliquots of the GroEL/ES-dMDH or HSP60/10-dMDH binary complex stocks were dispensed into clear, 384-well polystyrene plates. Next, 0.5 μL of the compound stocks (10 mM to 4.6 μM, 3-fold dilutions series in DMSO) were added by pin-transfer (V&P Scientific). The chaperonin-mediated refolding cycles were initiated by addition of 20 IA of ATP stock (reagent concentrations during refolding cycle: 50 nM GroEL or HSP60, 60 nM GroES or HSP10, 12 nM dMDH, 1 mM ATP, and compounds of 100 μM to 46 nM, 3-fold dilution series). The refolding reactions were incubated at 37° C. The incubation time was determined from refolding time-course control experiments until they reached ˜90% completion of refolding cycle — generally ˜20-40 min for GroEL/ES, and ˜40-60 min for HSP60/10). Next, the assay was quenched by addition of 10 μL of the EDTA to final concentration of 100 mM. […] A340 nm measurements were recorded at 0.5 minutes (start point) and at successive time points until the amount of NADH consumed reached ˜90% (end point, generally between 20-35 minutes). The differences between the start and end point A340 values were used to calculate the % inhibition of the GroEL/ES or HSP60/10 machinery by the compounds. IC50 values for the test compounds were obtained by plotting the % inhibition results in GraphPad Prism 6 and analyzing by non-linear regression using the log (inhibitor) vs. response (variable slope) equation. Results presented represent the averages of IC50 values obtained from at least quadriplicate (duplicate of duplicate) replicates. For results, see Tables 1, 2, and 3.

HSP60/10 = target: T2, HSP60/10 (Homo sapiens, UniProt P10809); assay: HSP60/10-mediated dMDH refolding assay; assay type: biochemical; details: Table 3; 37° C., 1 mM ATP; read-out: Biochemical Assay IC50 HSP60/10-dMDH Refolding
T2 construct: octa-Histidine (His8) tag, TEV-cleavable (N, cleaved yes); made in house; host or cells: HSP60 in Rosetta 2 (DE3) E. coli; HSP10 in Rosetta 2 (DE3) pLysS
T2 sequence (P10809 27-573): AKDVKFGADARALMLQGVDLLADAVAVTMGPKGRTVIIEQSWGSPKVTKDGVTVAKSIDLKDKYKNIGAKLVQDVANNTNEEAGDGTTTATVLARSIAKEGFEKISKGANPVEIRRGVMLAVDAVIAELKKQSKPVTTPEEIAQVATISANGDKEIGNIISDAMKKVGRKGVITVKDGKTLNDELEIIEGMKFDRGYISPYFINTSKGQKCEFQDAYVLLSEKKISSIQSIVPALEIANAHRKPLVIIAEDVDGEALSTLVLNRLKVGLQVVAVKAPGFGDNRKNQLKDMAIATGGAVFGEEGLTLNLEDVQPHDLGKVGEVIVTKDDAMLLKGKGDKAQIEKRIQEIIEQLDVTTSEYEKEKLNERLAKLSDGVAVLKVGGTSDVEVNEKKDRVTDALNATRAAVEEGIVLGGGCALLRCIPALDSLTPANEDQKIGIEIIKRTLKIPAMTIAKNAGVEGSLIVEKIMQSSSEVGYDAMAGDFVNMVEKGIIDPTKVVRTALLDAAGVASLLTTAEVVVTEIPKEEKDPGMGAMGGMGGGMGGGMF
Experimental: as §1, §2, §3

S. aureus = S. aureus bacterial proliferation assay; assay type: cell-based; details: Staphylococcus aureus; Table 3; cation adjusted BHI media, OD600 at 6-8 h; read-out: S. aureus Proliferation EC50
Experimental: Evaluation of compounds for inhibition of bacterial cell proliferation.
Growth Media: S. aureus bacteria were grown in Brain Heart Infusion (BHI) broth/agar (Becton, Dickinson and Company). All liquid cultures were grown in BHI media supplemented with 25 mg/L Ca^2+ and 12.5 mg/L Mg^2+ to mimic free physiological concentrations of these cations. A 10 mg/mL Ca^2+ stock solution was prepared by dissolving 3.68 g of CaCl2·2H^2O in 100 mL of deionized water, and a 10 mg/mL Mg^2+ stock solution was prepared by dissolving 8.36 g of […] in 100 mL deionized water. Both stock solutions were filter-sterilized using 0.2 μm pore size cellulose-acetate filters. 2.5 mL of the sterile 10 mg/mL Ca^2+ stock and 1.25 mL of the sterile 10 mg/mL Mg^2+ stock solutions were added per 1 L of autoclaved BHI medium to obtain 25 mg/L Ca^2+ and 12.5 mg/L Mg^2+ ions, respectively.
General Assay Protocol: Stock bacterial cultures were streaked onto BHI agar plates and grown overnight at 37° C. Fresh aliquots of broth were inoculated with single bacterial colonies and the cultures were grown overnight at 37° C. with shaking (240 rpm) in cation adjusted BHI media. The following morning, the overnight cultures were sub-cultured (1:5 dilution) into fresh aliquots of cation adjusted BHI media and grown at 37° C. for 1-2 hours with shaking. After 2 h, cultures were diluted into fresh media to achieve final OD600 readings of 0.017. Aliquots of these diluted cultures (30 μL) were added to clear, flat-bottom, 384-well polystyrene plates that were stamped with 0.5 μL of test compounds in 20 μL media. Compounds were evaluated in dose-response format where the inhibitor concentration range during the proliferation assay was 100 μM to 46 nM (3-fold dilution series). Plates were sealed with “Breathe Easy” oxygen permeable membranes (Diversified Biotech) and left to incubate at 37° C. without shaking (stagnant assay). OD600 nm readings were taken generally at 6-8 h, when bacteria had reached log-phase growth. A second set of baseline control plates were prepared analogously, but without any bacteria added, to correct for possible compound absorbance and/or precipitation. Plates were then read at 600 nm using a Molecular Devices SpectraMax Plus384 microplate reader. EC50 values for the test compounds were obtained by plotting the OD600 results in GraphPad Prism and analyzing by non-linear regression using the log(inhibitor) vs. response (variable slope) equation. For results, see Tables 1, 2, and 3.

[1] = HEK 293 kidney cell viability / cytotoxicity assay (Alamar Blue); assay type: cell-based; details: human, HEK 293 kidney cells; Table 3; 48 h incubation, Alamar Blue; read-out: HEK 293 Kidney Cell Viability CC50
Experimental: Evaluating compound effects on kidney cell viability.
HEK 293 cells were maintained in MEM medium (Corning Cellgro, 10-009 CV) supplemented with 10% FBS (Sigma, F2242). […] Cells at 80% confluence were harvested and diluted in growth medium, then 45 μL of the HEK 293 cells (1,500 cells/well) were dispensed per well, and plates were sealed with “Breathe Easy” oxygen permeable membranes (Diversified Biotech) and incubated at 37° C., 5% CO2, for 24 h. […] Plates were sealed with “Breathe Easy” oxygen permeable membranes and incubated for an additional 48 h at 37° C. and 5% CO2. The Alamar Blue reporter reagents were then added to a final concentration of 10%, the plates incubated at 37° C. and 5% CO2, and sample fluorescence (535 nm excitation, 590 nm emission) was read using a Molecular Devices FlexStation II 384-well plate reader (readings taken between 4-24 h of incubation so as to achieve signals in the 30-60% range for conversion of resazurin to resorufin). Cell viability was calculated as per vendor instructions (Thermo Fisher—Alamar Blue cell viability assay manual).

O=C(O)c1ccc(NC(=O)c2cc(Cl)ccc2O)cc1 [Compound 109, 4-(5-chloro-2-hydroxybenzamido)benzoic acid]
> 100 µM: IC50 (GroEL/ES) | IC50 (HSP60/10) | EC50 (S. aureus) | CC50 at 48 h [1]
